18 compounds from patent US20240124427A1, “HYDROXYHETEROCYCLOALKANE-CARBAMOYL DERIVATIVES” (Idorsia Pharmaceuticals Ltd, priority 2021, published 2024) can be followed below.

For the assay, the target named is human Gal-3 (hGal-3) (Homo sapiens (Human), UniProt P17931). Briefly: Competitive binding assay: biotinylated hGal-3 binding to microplate-adsorbed asialofetuin (ASF). The note with it: Activity on hGal-3; mean values of several measurements; mixture of diastereomers measured where not separated. The method, boiled down: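 Biotinylated human Gal-3 binding to plate-adsorbed asialofetuin, competed by compound, 3 h at 4 °C. Bound protein detected with streptavidin-peroxidase (1 h, 4 °C) and ABTS substrate. IC50 reported as mean of several measurements.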
Sequence of human Gal-3 (hGal-3) (P17931 whole entry): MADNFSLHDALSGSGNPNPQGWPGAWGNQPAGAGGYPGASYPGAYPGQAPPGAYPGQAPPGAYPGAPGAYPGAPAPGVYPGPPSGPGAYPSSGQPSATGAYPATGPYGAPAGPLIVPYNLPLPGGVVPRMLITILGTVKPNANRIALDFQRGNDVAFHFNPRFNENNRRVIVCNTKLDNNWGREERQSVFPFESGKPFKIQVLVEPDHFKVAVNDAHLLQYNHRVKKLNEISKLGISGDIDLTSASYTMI
By IC50 is commonly meant the midpoint of a concentration-inhibition curve. As for `CO[C@@H]1[C@@H](n2cc(-c3cc(F)c(F)c(F)c3)nn2)[C@@H](O)[C@@H](CO)O[C@H]1C(=O)N(c1cc(Br)cc(C#N)c1)[C@@H]1CNC[C@H]1O` [Example 67, (2R,3R,4S,5R,6R)-N-(3-bromo-5-cyanophenyl)-5-hydroxy-6-(hydroxymethyl)-N-((3R,4R)-4-hydroxypyrrolidin-3-yl)-3-methoxy-4-(4-(3,4,5-trifluorophenyl)-1H-1,2,3-triazol-1-yl)tetrahydro-2H-pyran-2-carboxamide], the IC50 was determined as 129 nM.

On to `CO[C@@H]1[C@@H](n2cc(-c3cc(F)c(F)c(F)c3)nn2)[C@@H](O)[C@@H](CO)O[C@H]1C(=O)N(c1cc(Br)cc(Br)c1)[C@H]1COC[C@@H]1O` [Example 6, (2R,3R,4S,5R,6R)-N-(3,5-dibromophenyl)-5-hydroxy-6-(hydroxymethyl)-N-((3S,4R)-4-hydroxytetrahydrofuran-3-yl)-3-methoxy-4-(4-(3,4,5-trifluorophenyl)-1H-1,2,3-triazol-1-yl)tetrahydro-2H-pyran-2-carboxamide], for which the IC50 was determined as 53 nM.

In the case of `CO[C@@H]1[C@@H](n2cc(-c3cc(F)c(F)c(F)c3)nn2)[C@@H](O)[C@@H](CO)O[C@H]1C(=O)N(c1cc(C)cc(Br)c1)[C@@H]1CNC[C@H]1O` [Example 68, (2R,3R,4S,5R,6R)-N-(3-bromo-5-methylphenyl)-5-hydroxy-6-(hydroxymethyl)-N-((3R,4R)-4-hydroxypyrrolidin-3-yl)-3-methoxy-4-(4-(3,4,5-trifluorophenyl)-1H-1,2,3-triazol-1-yl)tetrahydro-2H-pyran-2-carboxamide], the half-maximal inhibitory concentration (IC50) was 222 nM.

For `CO[C@@H]1[C@@H](n2cc(-c3cc(F)c(Cl)c(F)c3)nn2)[C@@H](O)[C@@H](CO)O[C@H]1C(=O)N(c1cc(Br)cc(Br)c1)[C@H]1COC[C@@H]1O` [Example 23, (2R,3R,4S,5R,6R)-4-(4-(4-chloro-3,5-difluorophenyl)-1H-1,2,3-triazol-1-yl)-N-(3,5-dibromophenyl)-5-hydroxy-6-(hydroxymethyl)-N-((3S,4R)-4-hydroxytetrahydrofuran-3-yl)-3-methoxytetrahydro-2H-pyran-2-carboxamide], the 50% inhibitory concentration (IC50) is 55 nM.

`CO[C@@H]1[C@@H](n2cc(-c3cc(F)c(F)c(F)c3)nn2)[C@@H](O)[C@@H](CO)O[C@H]1C(=O)N(c1cccc(Br)c1)[C@H]1COC[C@@H]1O` [Example 2, (2R,3R,4S,5R,6R)-N-(3-bromophenyl)-5-hydroxy-6-(hydroxymethyl)-N-((3S,4R)-4-hydroxytetrahydrofuran-3-yl)-3-methoxy-4-(4-(3,4,5-trifluorophenyl)-1H-1,2,3-triazol-1-yl)tetrahydro-2H-pyran-2-carboxamide]: the IC50 was 80 nM.

On to `CO[C@@H]1[C@@H](n2cc(-c3cc(F)c(F)c(F)c3)nn2)[C@@H](O)[C@@H](CO)O[C@H]1C(=O)N(c1cccc(Br)c1)[C@@H]1COC[C@H]1O` [Example 31, (2R,3R,4S,5R,6R)-N-(3-bromophenyl)-5-hydroxy-6-(hydroxymethyl)-N-((3R,4S)-4-hydroxytetrahydrofuran-3-yl)-3-methoxy-4-(4-(3,4,5-trifluorophenyl)-1H-1,2,3-triazol-1-yl)tetrahydro-2H-pyran-2-carboxamide], for which the half-inhibitory concentration (IC50) amounted to 103 nM.

In the case of `CO[C@@H]1[C@@H](n2cc(-c3cc(F)c(F)c(F)c3)nn2)[C@@H](O)[C@@H](CO)O[C@H]1C(=O)N(c1cc(C)cc(Br)c1)[C@H]1CNCC[C@@H]1O` [Example 114, (2R,3R,4S,5R,6R)-N-(3-bromo-5-methylphenyl)-5-hydroxy-6-(hydroxymethyl)-N-((3S,4S)-4-hydroxypiperidin-3-yl)-3-methoxy-4-(4-(3,4,5-trifluorophenyl)-1H-1,2,3-triazol-1-yl)tetrahydro-2H-pyran-2-carboxamide], the IC50 was found to be 9 nM.

For the compound `CO[C@@H]1[C@@H](n2cc(-c3cc(F)c(F)c(F)c3)nn2)[C@@H](O)[C@@H](CO)O[C@H]1C(=O)N(c1cc(Cl)cc(Cl)c1)[C@@H]1COCC[C@H]1O` [Example 107, (2R,3R,4S,5R,6R)-N-(3,5-dichlorophenyl)-5-hydroxy-6-(hydroxymethyl)-N-((3R,4R)-4-hydroxytetrahydro-2H-pyran-3-yl)-3-methoxy-4-(4-(3,4,5-trifluorophenyl)-1H-1,2,3-triazol-1-yl)tetrahydro-2H-pyran-2-carboxamide], the IC50 worked out at 217 nM.

Take `CO[C@@H]1[C@@H](n2cc(-c3ccc(C)c(F)c3F)nn2)[C@@H](O)[C@@H](CO)O[C@H]1C(=O)N(c1cc(Cl)cc(Cl)c1)[C@H]1COC[C@@H]1O` [Example 19, (2R,3R,4S,5R,6R)-N-(3,5-dichlorophenyl)-4-(4-(2,3-difluoro-4-methylphenyl)-1H-1,2,3-triazol-1-yl)-5-hydroxy-6-(hydroxymethyl)-N-((3S,4R)-4-hydroxytetrahydrofuran-3-yl)-3-methoxytetrahydro-2H-pyran-2-carboxamide]: the IC50 stood at 40 nM.

Turning to `CO[C@@H]1[C@@H](n2cc(-c3ccc(Cl)c(Cl)c3)nn2)[C@@H](O)[C@@H](CO)O[C@H]1C(=O)N(c1cc(Br)cc(Br)c1)[C@@H]1COC[C@H]1O` [Example 56, (2R,3R,4S,5R,6R)-N-(3,5-dibromophenyl)-4-(4-(3,4-dichlorophenyl)-1H-1,2,3-triazol-1-yl)-5-hydroxy-6-(hydroxymethyl)-N-((3R,4S)-4-hydroxytetrahydrofuran-3-yl)-3-methoxytetrahydro-2H-pyran-2-carboxamide], the IC50 was 222 nM.

Take `CO[C@@H]1[C@@H](n2cc(-c3cc(F)c(F)c(F)c3)nn2)[C@@H](O)[C@@H](CO)O[C@H]1C(=O)N(c1cccc(I)c1)[C@H]1COC[C@@H]1O` [Example 3, (2R,3R,4S,5R,6R)-5-hydroxy-6-(hydroxymethyl)-N-((3S,4R)-4-hydroxytetrahydrofuran-3-yl)-N-(3-iodophenyl)-3-methoxy-4-(4-(3,4,5-trifluorophenyl)-1H-1,2,3-triazol-1-yl)tetrahydro-2H-pyran-2-carboxamide]: the IC50 was 56 nM.

Turning to `CO[C@@H]1[C@@H](n2cc(-c3ccc(C)c(F)c3F)nn2)[C@@H](O)[C@@H](CO)O[C@H]1C(=O)N(c1cc(C)cc(Br)c1)[C@@H]1COC[C@H]1O` [Example 50, (2R,3R,4S,5R,6R)-N-(3-bromo-5-methylphenyl)-4-(4-(2,3-difluoro-4-methylphenyl)-1H-1,2,3-triazol-1-yl)-5-hydroxy-6-(hydroxymethyl)-N-((3R,4S)-4-hydroxytetrahydrofuran-3-yl)-3-methoxytetrahydro-2H-pyran-2-carboxamide], the IC50 stood at 34 nM.

For the compound `CO[C@@H]1[C@@H](n2cc(-c3ccc(Br)c(F)c3F)nn2)[C@@H](O)[C@@H](CO)O[C@H]1C(=O)N(c1cc(Br)cc(C#N)c1)[C@@H]1COC[C@H]1O` [Example 42, (2R,3R,4S,5R,6R)-4-(4-(4-bromo-2,3-difluorophenyl)-1H-1,2,3-triazol-1-yl)-N-(3-bromo-5-cyanophenyl)-5-hydroxy-6-(hydroxymethyl)-N-((3R,4S)-4-hydroxytetrahydrofuran-3-yl)-3-methoxytetrahydro-2H-pyran-2-carboxamide], the IC50 worked out at 37 nM.

Turning to `CO[C@@H]1[C@@H](n2cc(-c3ccc(C)c(F)c3F)nn2)[C@@H](O)[C@@H](CO)O[C@H]1C(=O)N(c1cc(C)cc(Br)c1)[C@@H]1CNC[C@H]1O` [Example 69, (2R,3R,4S,5R,6R)-N-(3-bromo-5-methylphenyl)-4-(4-(2,3-difluoro-4-methylphenyl)-1H-1,2,3-triazol-1-yl)-5-hydroxy-6-(hydroxymethyl)-N-((3R,4R)-4-hydroxypyrrolidin-3-yl)-3-methoxytetrahydro-2H-pyran-2-carboxamide], the IC50 amounted to 38 nM.

For the compound `CO[C@@H]1[C@@H](n2cc(-c3cc(F)c(F)c(F)c3)nn2)[C@@H](O)[C@@H](CO)O[C@H]1C(=O)N(c1cc(Cl)cc(Cl)c1)[C@@H]1CN(C(C)=O)C[C@H]1O` [Example 77, (2R,3R,4S,5R,6R)-N-((3R,4R)-1-acetyl-4-hydroxypyrrolidin-3-yl)-N-(3,5-dichlorophenyl)-5-hydroxy-6-(hydroxymethyl)-3-methoxy-4-(4-(3,4,5-trifluorophenyl)-1H-1,2,3-triazol-1-yl)tetrahydro-2H-pyran-2-carboxamide], the IC50 worked out at 80 nM.

In the case of `CO[C@@H]1[C@@H](n2cc(-c3cc(F)c(F)c(F)c3)nn2)[C@@H](O)[C@@H](CO)O[C@H]1C(=O)N(c1cc(C)cc(C#N)c1)[C@H]1COC[C@@H]1O` [Example 10, (2R,3R,4S,5R,6R)-N-(3-cyano-5-methylphenyl)-5-hydroxy-6-(hydroxymethyl)-N-((3S,4R)-4-hydroxytetrahydrofuran-3-yl)-3-methoxy-4-(4-(3,4,5-trifluorophenyl)-1H-1,2,3-triazol-1-yl)tetrahydro-2H-pyran-2-carboxamide], the concentration for half-maximal inhibition (IC50) stood at 136 nM.

Take `CO[C@@H]1[C@@H](n2cc(-c3ccc(C)c(F)c3F)nn2)[C@@H](O)[C@@H](CO)O[C@H]1C(=O)N(c1cc(C)cc(Br)c1)[C@@H]1CN(C=O)C[C@H]1O` [Example 95, (2R,3R,4S,5R,6R)-N-(3-bromo-5-methylphenyl)-4-(4-(2,3-difluoro-4-methylphenyl)-1H-1,2,3-triazol-1-yl)-N-((3R,4R)-1-formyl-4-hydroxypyrrolidin-3-yl)-5-hydroxy-6-(hydroxymethyl)-3-methoxytetrahydro-2H-pyran-2-carboxamide]: the IC50 stood at 40 nM.

`CO[C@@H]1[C@@H](n2cc(-c3cc(F)c(F)c(F)c3)nn2)[C@@H](O)[C@@H](CO)O[C@H]1C(=O)N(c1cc(Br)cc(Br)c1)[C@@H]1COC[C@H]1O` [Example 35, (2R,3R,4S,5R,6R)-N-(3,5-dibromophenyl)-5-hydroxy-6-(hydroxymethyl)-N-((3R,4S)-4-hydroxytetrahydrofuran-3-yl)-3-methoxy-4-(4-(3,4,5-trifluorophenyl)-1H-1,2,3-triazol-1-yl)tetrahydro-2H-pyran-2-carboxamide]: the IC50 was found to be 84 nM.
